From patent US12180198B2, “Ribocil C antibiotics effective for Gram-negative pathogens” (THE BOARD OF TRUSTEES OF THE UNIVERSITY OF ILLINOIS, priority 2018, dated 2024)
Structures can show the parent of a compound that is named as a salt. Where two headings read alike, the source gives them in different places.

Key:
[1] = test system: E. coli BAA-2469; test: Bioactivity against exemplary strains of bacteria (Table 5A); format: cell-based; parameters: unit not given here; conditions: Strain 2: E. coli BAA-2469
[2] = test system: A. baumannii BAA-2093; test: as above; format: cell-based; conditions: Strain 3: A. baumannii BAA-2093
[3] = test system: K. pneumoniae BAA-2146; test: as above; format: cell-based; conditions: Strain 4: K. pneumoniae BAA-2146
[4] = test system: A. baumannii F19521; test: MIC, micro-dilution broth method; format: cell-based; conditions: Acinetobacter baumannii; A. baumannii F19521; read-out: MIC
Description: (§1) Compounds were evaluated against a panel of Gram-positive and Gram-negative organisms. MIC values were determined using the micro-dilution broth method as outlined by the Clinical and Laboratory Standards Institute (clsi.org/) and are listed in […]. All experiments were performed in biological triplicate.
(§2) Antimicrobial susceptibility tests. Susceptibility testing was performed in biological triplicate, using the micro-dilution broth method as outlined by the Clinical and Laboratory Standards Institute. Bacteria were cultured with cation-adjusted Muller-Hinton broth (Sigma-Aldrich, Cat #90922) in round-bottom 96-well plates (Corning, Cat #3788). Human serum (pooled gender, 0.2 μm filtered) was purchased from BioIVT (Hicksville, NY).

[5] = test system: A. baumannii KB304; test: MIC, micro-dilution broth method; format: cell-based; conditions: Acinetobacter baumannii; A. baumannii KB304; read-out: MIC
Description: as §1, §2

[6] = test system: A. baumannii KB343; test: MIC, micro-dilution broth method; format: cell-based; conditions: Acinetobacter baumannii; A. baumannii KB343; read-out: MIC
Description: as §1, §2

[7] = test system: A. baumannii KB357; test: MIC, micro-dilution broth method; format: cell-based; conditions: Acinetobacter baumannii; A. baumannii KB357; read-out: MIC
Description: as §1, §2

[8] = test system: A. baumannii M13100; test: MIC, micro-dilution broth method; format: cell-based; conditions: Acinetobacter baumannii; A. baumannii M13100; read-out: MIC
Description: as §1, §2

[9] = test system: A. baumannii W41979; test: MIC, micro-dilution broth method; format: cell-based; conditions: Acinetobacter baumannii; A. baumannii W41979; read-out: MIC
Description: as §1, §2

[10] = test system: A. baumannii WO22; test: MIC, micro-dilution broth method; format: cell-based; conditions: Acinetobacter baumannii; A. baumannii WO22; read-out: MIC
Description: as §1, §2

[11] = test system: E. cloacae BAA-2341; test: MIC, micro-dilution broth method; format: cell-based; conditions: Enterobacter cloacae, BAA2341; E. cloacae BAA-2341; read-out: MIC
Description: as §1, §2

[12] = test system: E. cloacae BAA-2468; test: MIC, micro-dilution broth method; format: cell-based; conditions: Enterobacter cloacae, BAA2468; E. cloacae BAA-2468; read-out: MIC
Description: as §1, §2

[13] = test system: E. cloacae S28901.1; test: MIC, micro-dilution broth method; format: cell-based; conditions: Enterobacter cloacae; E. cloacae S28901.1; read-out: MIC
Description: as §1, §2

[14] = test system: E. coli AR-0346; test: MIC, micro-dilution broth method; format: cell-based; conditions: Escherichia coli, AR0346; E. coli AR-0346; read-out: MIC
Description: as §1, §2

[15] = test system: E. coli AR-0349; test: MIC, micro-dilution broth method; format: cell-based; conditions: Escherichia coli, AR0349; E. coli AR-0349; read-out: MIC
Description: as §1, §2

[16] = test system: E. coli AR-0493; test: MIC, micro-dilution broth method; format: cell-based; conditions: Escherichia coli, AR0493; E. coli AR-0493; read-out: MIC
Description: as §1, §2

[17] = test system: E. coli AR-0495; test: MIC, micro-dilution broth method; format: cell-based; conditions: Escherichia coli, AR0495; E. coli AR-0495; read-out: MIC
Description: as §1, §2

[18] = test system: E. coli BAA-2469; test: MIC, micro-dilution broth method; format: cell-based; conditions: Escherichia coli, BAA2469; E. coli BAA-2469; read-out: MIC
Description: as §1, §2

[19] = test system: E. coli BAA-2471; test: MIC, micro-dilution broth method; format: cell-based; conditions: Escherichia coli, BAA2471; E. coli BAA-2471; read-out: MIC
Description: as §1, §2

[20] = test system: E. coli MG1655; test: MIC, micro-dilution broth method; format: cell-based; conditions: Escherichia coli
Description: as §1, §2

[21] = test system: E. coli ΔrfaC JW3596; test: MIC, micro-dilution broth method; format: cell-based; conditions: Escherichia coli
Description: as §1, §2

[22] = test system: E. coli ΔtolC JW5503; test: MIC, micro-dilution broth method; format: cell-based; conditions: Escherichia coli
Description: as §1, §2

[23] = test system: K. pneumoniae AR-0347; test: MIC, micro-dilution broth method; format: cell-based; conditions: Klebsiella pneumoniae, AR0347; K. pneumoniae AR-0347; read-out: MIC
Description: as §1, §2

[24] = test system: K. pneumoniae BAA-1705; test: MIC, micro-dilution broth method; format: cell-based; conditions: Klebsiella pneumoniae, BAA1705; K. pneumoniae BAA-1705; read-out: MIC
Description: as §1, §2

[25] = test system: K. pneumoniae BAA-2342; test: MIC, micro-dilution broth method; format: cell-based; conditions: Klebsiella pneumoniae, BAA2342; K. pneumoniae BAA-2342; read-out: MIC
Description: as §1, §2

[26] = test system: K. pneumoniae BAA-2470; test: MIC, micro-dilution broth method; format: cell-based; conditions: Klebsiella pneumoniae, BAA2470; K. pneumoniae BAA-2470; read-out: MIC
Description: as §1, §2

[27] = test system: K. pneumoniae BAA-2472; test: MIC, micro-dilution broth method; format: cell-based; conditions: Klebsiella pneumoniae, BAA2472; K. pneumoniae BAA-2472; read-out: MIC
Description: as §1, §2

[28] = test system: K. pneumoniae BAA-2473; test: MIC, micro-dilution broth method; format: cell-based; conditions: Klebsiella pneumoniae, BAA2473; K. pneumoniae BAA-2473; read-out: MIC
Description: as §1, §2

[29] = test system: K. pneumoniae M14723; test: MIC, micro-dilution broth method; format: cell-based; conditions: Klebsiella pneumoniae; K. pneumoniae M14723; read-out: MIC
Description: as §1, §2

[30] = test system: K. pneumoniae M67198; test: MIC, micro-dilution broth method; format: cell-based; conditions: Klebsiella pneumoniae; K. pneumoniae M67198; read-out: MIC
Description: as §1, §2

[31] = test system: K. pneumoniae M67297; test: MIC, micro-dilution broth method; format: cell-based; conditions: Klebsiella pneumoniae; K. pneumoniae M67297; read-out: MIC
Description: as §1, §2

[32] = test system: K. pneumoniae S20595; test: MIC, micro-dilution broth method; format: cell-based; conditions: Klebsiella pneumoniae; K. pneumoniae S20595; read-out: MIC
Description: as §1, §2

[33] = test system: K. pneumoniae S47889; test: MIC, micro-dilution broth method; format: cell-based; conditions: Klebsiella pneumoniae; K. pneumoniae S47889; read-out: MIC
Description: as §1, §2

[34] = test system: S. aureus ATCC 29213; test: MIC, micro-dilution broth method; format: cell-based; conditions: Staphylococcus aureus, ATCC29213, S. aureus ATCC 29213
Description: as §1, §2

[35] = test system: E. coli strains with intact outer membranes; test: MIC, micro-dilution broth method (text summary); format: cell-based; conditions: E. coli strains with intact outer membranes
Description: FIG. 2. Antimicrobial activity of Debio-1452 and derivatives. MIC values were determined using the micro-dilution broth method as outlined by the Clinical and Laboratory Standards Institute (clsi.org/). All experiments were performed in biological triplicate.
as §2

[36] = test system: H. sapiens IMR-90; test: Cell viability, Alamar Blue; format: cell-based; conditions: Homo sapiens, IMR-90, read-out: % inhibition at 30 μM
Description: Cell culture. IMR90 cells were obtained from ATCC. IMR90 cells were grown in EMEM with 10% fetal bovine serum (Gemini Benchmark, Cat #100-106), 100 U/mL penicillin, and 100 μg/mL streptomycin. All cells were cultured at 37° C. in a 5% CO2 environment. Media was prepared by the University of Illinois School of Chemical Sciences Cell Media Facility. Sex and age of cell lines: IMR90 ([…]).
Cell viability. Cells seeded (IMR90: 5,000 cells/well) a 96-well plate (Greiner Bio-One, Cat #655180) and were allowed to attach overnight. Cells were treated with investigational compounds in DMSO (30 μM, 1% DMSO final, 100 μL/well). Raptinal (100 μM) was used as a dead control. After 24 h post-treatment, media was exchanged with compound-free media. After 72 h post-treatment, cell viability was assessed using the Alamar Blue method. Stock Alamar Blue solution [10 μL, 440 μM resazurin (Sigma-Aldrich, Cat #R7017) in sterile 1×PBS] was added to each well, and plate was incubated […]. Conversion of Alamar Blue was measured with plate reader (SpectraMax M3, Molecular Devices) by fluorescence (ex 555 nm, em 585 nm, cutoff 570 nm, autogain). Percent death was determined by normalizing to DMSO-treated cells and raptinal-treated cells.

[37] = Mouse MTD; conditions: mice, IP injection, single dose, monitored 2 weeks
Description: The protocol was approved by the IACUC at the University of Illinois at Urbana-Champaign (Protocol Number: 16144). In these studies, 10- to 12-week-old female C57BL/6 mice purchased from Charles River were used. The maximum tolerate dose (MTD) of a single compound was determined first. […] For multiple doses, the compound was given by daily IP for 5 consecutive days and mice were monitored for signs of toxicity for 1 month. MTD was the highest dosage with acceptable toxicity (e.g., <20% weight loss). Single dose MTDs were initially determined.

For `NCc1cnc(-n2cnc(CN3CCCC(c4nc(O)cc(-c5cccs5)n4)C3)c2)nc1` (stereo not drawn) [R13a], the Bioactivity [1] was 16, the Bioactivity [2] was >128 and the Bioactivity [3] was 64.

In the case of `CCN(CC)CCNc1nc(/C=C/c2ccc(Cl)cc2)nc2cc3ccccc3cc12` [Z3, Zantrin Z3, reference compound], the Bioactivity [1] is reported as >64, the Bioactivity [2] is reported as 32 and the Bioactivity [3] is reported as >64.

For `NCCNc1nc(/C=C/c2ccc(Cl)cc2)nc2cc3ccccc3cc12` [Z7, (E)-N^1-(2-(4-chlorostyryl)benzo[g]quinazolin-4-yl)ethane-1,2-diamine], the Bioactivity [1] was 4, the Bioactivity [2] was 2 and the Bioactivity [3] was >32.

In the case of `Cc1ccc2nc(/C=C/c3ccc(Cl)cc3)nc(NCCN)c2c1` [Z14, (E)-N^1-(2-(4-chlorostyryl)-6-methylquinazolin-4-yl)ethane-1,2-diamine], the Bioactivity [1] is reported as 8, the Bioactivity [2] is reported as 8 and the Bioactivity [3] is reported as 64.

In the case of `Cc1c(CN(C)C(=O)/C=C/c2cnc3c(c2)CC(CN)C(=O)N3)oc2ccccc12.Cl` (stereo not drawn) [compound 2, (E)-3-(6-(aminomethyl)-7-oxo-5,6,7,8-tetrahydro-1,8-naphthyridin-3-yl)-N-methyl-N-((3-methylbenzofuran-2-yl)methyl)acrylamide hydrochloride], the MIC [4] is reported as 16 µg/mL, the MIC [5] is reported as 64 µg/mL and the MIC [6] is reported as > 64 µg/mL. The MIC [7] was > 64 µg/mL, the MIC [8] was 16 µg/mL and the MIC [9] was 16 µg/mL. For the same molecule, the MIC [10] was > 64 µg/mL, the MIC [11] was 16 µg/mL and the MIC [12] was 8 µg/mL. The MIC [13] was 8 µg/mL, the MIC [14] was 4 µg/mL and the MIC [15] was 2 µg/mL. For the same molecule, the MIC [16] was 4 µg/mL, the MIC [17] was 2 µg/mL and the MIC [18] was 2 µg/mL. The MIC [19] was 4 µg/mL, the MIC ([20]; E. coli MG1655, read-out: MIC) was 8 µg/mL and the MIC [21] was 0.5 µg/mL. For the same molecule, the MIC [22] was 0.125 µg/mL, the MIC [23] was 8 µg/mL and the MIC [24] was 16 µg/mL. It also gave an MIC [25] of 16 µg/mL, an MIC [26] of 4 µg/mL and an MIC [27] of 16 µg/mL. For the same molecule, the MIC [28] was 16 µg/mL, the MIC [29] was 16 µg/mL and the MIC [30] was 32 µg/mL. The MIC [31] was 32 µg/mL, the MIC [32] was 16 µg/mL and the MIC [33] was 8 µg/mL. The MIC ([34]; read-out: MIC) was 0.03 µg/mL and the “antibacterial activity (in words)” value [35] was “active”.

In the case of `Cc1c(CN(C)C(=O)/C=C/c2cnc3c(c2)CC(CCN)C(=O)N3)oc2ccccc12` (stereo not drawn) [compound 3, (E)-3-(6-(aminoethyl)-7-oxo-5,6,7,8-tetrahydro-1,8-naphthyridin-3-yl)-N-methyl-N-((3-methylbenzofuran-2-yl)methyl)acrylamide hydrochloride], the MIC ([20]; MG1655) is reported as 8 µg/mL, the MIC [21] is reported as 0.5 µg/mL and the MIC [22] is reported as 0.062 µg/mL. The MIC [34] was 0.125 µg/mL, the inhibition at 30 µM [36] was 12% and the “antibacterial activity (in words)” value [35] was “active”. The “single dose well tolerated” value [37] was 100 mg/kg.
